Data from EP1552850A2, “A combination of FBPase inhibitors and insulin sensitizers for the treatment of diabetes” (priority 1998, dated 2000).

Columns and labels:
Rat Hepatocytes = experiment: Inhibition of Glucose Production and Elevation of Fructose-1,6-Bisphosphate Levels in Rat Hepatocytes; type: cell-based
Experimental: Hepatocytes were prepared from fed Sprague-Dawley rats (250-300 g) according to the procedure of Berry and Friend (Berry, M.N., Friend, D.S., 1969, J. Cell. Biol. 43, 506-520) as modified by Groen (Groen, A.K., Sips, H.J., Vervoom, R.C., Tager, J.M. , 1982, Eur. J. Biochem. 122, 87-93). Hepatocytes (75 mg wet weight/ml) were incubated in 1 ml Krebs-bicarbonate buffer containing 10 mM Lactate, 1 mM pyruvate, 1 mg/ml BSA, and test compound concentrations from 0 to 500 µM. Incubations were carried out in a 95% oxygen, 5% carbon dioxide atmosphere in closed, 50-ml Falcon tubes submerged in a rapidly shaking water bath (37°C). After 1 hour, an aliquot (0.25 ml) was removed, transferred to an Eppendorf tube and centrifuged. 50 µl of supernatant was then assayed for glucose content using a Sigma Glucose Oxidase kit as per the manufacturer's instructions.
Rat hepatocytes were isolated and incubated as described in Example C. Cell extracts, were analyzed for glucose content as described in Example C, and also for fructose 1,6-bisphosphate. Fructose 1,6-bisphosphate was assayed spectrophotometrically by coupling its enzymatic conversion to glycerol 3-phosphate to the oxidation of NADH, which was monitored at 340 nm. […] After a 30 minute preincubation at 37°C, 1 unit/mi of aldolase was added and the change in absorbance measured until a stable value was obtained. […]

ZDF rat [1] = experiment: Combination treatment with Troglitazone and Compound G or Compound J in the ZDF rat - blood glucose; type: in vivo, Zucker Diabetic Fatty (ZDF) rat; conditions: for Blood Glucose, Day 0: baseline
Experimental: At 11 weeks of age, animals with blood glucose >500 mg/dl were selected and divided into 4 treatment groups (n=8/group). […] Blood glucose levels were measured in tail vein samples by means of a HemoCue glucose analyzer (HemoCue Inc., Mission Viejo, CA). Values are expressed as the mean plus or minus the standard error of the mean. Differences between groups were evaluated by analysis of variance with the Tukey-Kramer post hoc test.

ZDF rat [2] = conditions: in vivo
Experimental: At 11 weeks of age, animals with blood glucose >500 mg/dl were selected and divided into 4 treatment groups (n=8/group). […] Values are expressed as the mean plus or minus the standard error of the mean. Differences between groups were evaluated by analysis of variance with the Tukey-Kramer post hoc test.
Plasma was prepared by centrifugation and triglyceride levels then measured by means of a standard assay kit according to the instructions of the manufacturer (Sigma Chemical Company). Differences between groups were evaluated by analysis of variance with the Tukey-Kramer post hoc test. Results are considered significant with p<0.05.

[3] = Oral Bioavailability Determination (urinary excretion method); type: in vivo, Sprague Dawley rats; conditions: rat, oral 10-40 mg/kg vs intravenous parent, 24 hours urine
Experimental: The oral bioavailability of prodrugs and parent compounds was determined by the urinary excretion method in the rat. Prodrugs were dissolved in 10% ethanol/90% polyethylene glycol (mw 400) and administered by oral gavage at doses of 10 to 40 mg/kg parent compound equivalents to 6-hour fasted, Sprague Dawley rats (220-240 g). Parent compounds were typically dissolved in deionized water, neutralized with sodium hydroxide, and then administered orally at 10-40 mg/kg or intravenously at ~10 mg/kg. The rats were subsequently placed in metabolic cages and urine was collected for 24 hours. The quantity of parent compound excreted into urine was determined by HPLC analysis as described in Example F. Analysis was performed as described in Example F. For prodrugs, the percentage oral bioavailability was estimated by comparison of the recovery in urine of the parent compound generated from the prodrug administered orally, to that recovered in urine following intravenous administration of the corresponding parent compound. For parent compounds, the percentage oral bioavailability was estimated by comparison of the recovery in urine of the parent compound when administered orally to that recovered when administered intravenously.

[4] = Hepatic and plasma drug metabolite levels after Compound A p.o. in rats; type: in vivo, SpragueDawley rats; conditions: after Compound A 250 mg/kg by oral gavage; 8 hours sampling
Experimental: Compound A was administered by oral gavage to freely-feeding SpragueDawley rats (250-300g). The compound was prepared as a suspension in carboxymethylcellulose, and administered at a dose of 250 mg/kg. For the determination of liver metabolites, rats were serially sacrificed over the course of 24 hours after drug administration. Livers were freeze-clamped, homogenized in perchloric acid, neutralized, and then analyzed for Compound B by anion exchange HPLC.
For the determination of plasma metabolites, rats were instrumented with carotid catheters prior to oral dosing. Blood samples were withdrawn via the catheters at appropriate time points over the course of 8 hours post drug administration. Plasma was prepared from the blood samples by centrifugation, and plasma protein precipitated by the addition of methanol to 60%. Compound A metabolites were quantitated by reverse phase HPLC in the deproteinated plasma samples. A C18 column (1.4 cm X 250 mm) was equilibrated with 10 mM sodium phosphate, pH 5.5 and eluted with a gradient from this buffer to acetonitrile. Detection was at 254 nm.

type 2 diabetics = conditions: clinic; cited from earlier work
db/db Mouse = experiment: Combination treatment with Troglitazone and Compound G in the db/db mouse - blood glucose; conditions: db/db mice, baseline
Experimental: Male db/db mice were purchased at 8 weeks of age from Jackson Labs (Bar Harbor, Maine). […] At 10 weeks of age, animals with blood glucose >400 mg/dl and <900 mg/dl were selected and divided into 4 treatment groups (n=5-6/group). […] Treatment was for 18 days. […] Blood glucose levels were measured in tail vein samples by means of a HemoCue glucose analyzer (HemoCue Inc., Mission Viejo, CA). Values are expressed as the mean plus or minus the standard error of the mean. Differences between groups were evaluated by analysis of variance with the Tukey-Kramer post hoc test. Results are considered significant with p<0.05.

[5] = Troglitazone-Compound J study, Troglitazone 0.2%, Compound J 0.4%

Structure (SMILES): CCc1cc(F)c(N)c2nc(-c3ccc(P(=O)(O)O)o3)n(CC(C)C)c12 [Compound E]
- intracellular fructose 1,6-bisphosphate (Rat Hepatocytes): dose-dependent elevation

Structure (SMILES): CCOC(=O)[C@H](C)NP(=O)(N[C@@H](C)C(=O)OCC)c1ccc(-c2nc(N)sc2CC(C)C)o1 [Compound J, 2-Amino-5-isobutyl-4-{2-[5-(N,N'-bis((S)-1-ethoxycarbonyl)ethyl)phosphonamido]furanyl}thiazole]
- Blood Glucose, Day 0 (ZDF rat [1]; [5]): 674 ± 20 mg/dL
- Blood Glucose, Day 21 (ZDF rat [1]; [5]): 452 ± 40 mg/dL
- blood glucose lowering, pilot studies (ZDF rat [1]; ZDF rat, food admixture dose finding): trend (not significant) towards more pronounced blood glucose lowering at 0.4% than at 0.2%
- elevation of plasma triglycerides (ZDF rat [2]): ~2 fold

Structure (SMILES): CSc1nc(-c2ccc(P(=O)(O)O)o2)c(CC(C)C)s1 [Compound H, 2-Methylthio-5-isobutyl-4-[2-(5-phosphono)furanyl]thiazole]
- Oral bioavailability, % [3]: 4%

Structure (SMILES): NC(=O)c1ncn([C@@H]2O[C@H](CO)[C@@H](O)[C@H]2O)c1Br [5-bromo-1-βD-ribofuranosyl-imidazole-carboxamide]
- detection in plasma [4]: detectable

Structure (SMILES): Cc1c(C)c2c(c(C)c1O)CCC(C)(COc1ccc(CC3SC(=O)NC3=O)cc1)O2 (stereo not shown) [Troglitazone]
- Blood Glucose, Day 0 (ZDF rat [1]; Troglitazone-Compound G study, 0.2% food admixtures): 655 ± 33 mg/dL
- hepatotoxicity, elevation of liver enzymes (type 2 diabetics): 1 % of patients
- Blood Glucose, Day 0 (db/db Mouse): 710 ± 44 mg/dL
